Tested on: mesenchymal stem cells (MSCs)
Experiment: Cardiomyogenic differentiation of cultured rat MSCs in vitro (myotube formation, immunofluorescent staining)
Type: cell-based
Conditions: for staining for cardiac specific troponin I / staining for myosin heavy chain: cultured MSCs, 21st day
Description: An incision was made in the hindlimb of each rat while the rat was under general anesthesia. An 18-gauge needle was punctured to the bone and used to aspirate bone marrow (1 ml) from the tibia. The marrow aspirate was transferred to sterile tubes, which contained 10 ml Iscove's modified Dulbecco medium (TMDM; Gibco Laboratories, Gaithersberg, Md.), containing antibiotics (penicillin G, 100 U/ml; streptomycin, 100 μg/ml) and 1000 IU heparin. The marrow cell suspension was dispersed into single cells using a 23-gauge needle. The tube was spun at 2000 rpm for 5 min to pellet the cells. After removing the supernatant and fat layer, the cell pellet was re-suspended with IMDM. To separate bone marrow cells and red blood cells, the density centrifugation method described by Yablonka-Reuveni and Nameroff (Histochemistry, 87:27-38, 1987) was used. First, the cell suspension was loaded onto 20% and 60% Percoll (Sigma Chemical Co., St. Louis, Mo.) layers, which were piled up in a tube, and the tube was centrifuged at 14000 rpm. for 10 minutes. […] The cells were centrifuged at 2,000 rpm for 10 minutes and then washed with phosphate-buffered saline (PBS) to remove the Percoll. This was repeated and then the cell pellet was resuspended in culture medium and used for in vitro and in vivo studies.
To identify the optimal conditions for inducing mesenchymal stem cell (MSC) differentiation by 5-azacytidine, the cells were cultured in IMDM containing 10% fetal bovine serum and antibiotics, with 5-azacytidine (5-aza: 0.1, 1, 5, 10, 20, and 100 μM; n=6 for each group), with insulin (1 nM; n=6), or with TGFβ1 (10 ng/ml; n=6). The cells were incubated with these agents for 24 hours and then washed with PBS. The medium was changed twice a week for 21 days. Almost all the hematopoietic stem cells were washed away with the medium changes.
To test the effect of cell passaging on cardiomyogenic differentiation of MSCs, samples of MSCs, prepared as described above, were passaged once prior to preparing the cell cultures described below. In this case, the term passaging refers to the distribution of cultured cells growing in a culture dish into new dishes after the cells reach confluence (i.e. when the cells contact each other and cover the surface of the dish).
One group of the MSCs, prepared as above, was, in turn, divided into two groups: A (control) and B, each group having 6 samples. Cells of the control group, A, were cultured for 7 days in IMDM containing 10% fetal bovine serum and antibiotics. The MSCs of group B were initially cultured for 2 days in the above medium after which 5-aza (10 μM) was added to the culture medium. After a 24 hour exposure to 5-aza, the compound was washed out of the culture and the cells were culturing in the medium described above for 4 days more.
Following the above culturing period, the cells from both groups were stained by immunocytofluorescence to detect the presence of cardiac-specific troponin I (a contractile apparatus-specific protein found only in cardiomyocytes) or muscle-specific myosin heavy chain. Briefly, the staining method entailed washing the cells with phosphate-buffer saline (PBS), followed by incubation in methanol at −20° C. for 20 minutes. The dishes were then washed with PBS three times. Monoclonal antibodies specific against cardiac troponin I (Spectral Diagnostic, Toronto) or against myosin heavy chain (Biogenesis, USA), were added to the cells and the dishes were incubated at 37° C. for 1 hour. To remove unbound antibody, the dishes were gently shaken at room temperature and washed three times with PBS. A rabbit antibody conjugated with FITC (fluorescein isothiocyanate) against mouse IgG was added to the dishes, after which incubation and rinsing with PBS were performed as described above for the first antibody. Observations were made and photos were taken. […]

[1] = cultured bone marrow MSCs, 5-aza added on third day, seen on 10th day of culture

Row | Compound | myotube formation (5 μM 5-aza for 24 hours) | number of MSCs in cultures (10 μM 5-aza added on first or second day compared with third day after isolation) | number of myotubes, visually determined (10 μM 5-aza compared with 5 μM 5-aza) | myotube formation (10 μM 5-aza for 24 hours) | necrotic cells (MSCs incubated with 5-aza at 20 μM) | necrotic cells (MSCs incubated with 5-aza at 100 μM) | differentiation into cardiomyocyte-like cells (myotube formation) (MSCs passaged once, then 5-aza 10 μM for 24 hours) | cell morphology (concentrations of 5-aza lower than 5 μM) | staining for cardiac specific troponin I | staining for myosin heavy chain | myotube formation [1]
1 | Nc1ncn([C@@H]2O[C@H](CO)[C@@H](O)[C@H]2O)c(=O)n1 [5-aza, 5-azacytidine] | myotube formation was present | much smaller | greater | myotube formation was present | more than 50% | more than 50% | did not differentiate into cardiomyocyte-like cells | morphologically similar to the control cells | stained positively | stained positively | formed multinucleated myotubes
2 | TGFβ1 |  |  |  |  |  |  |  |  | negative | negative | did not form myotubes
3 | insulin |  |  |  |  |  |  |  |  | negative | negative | did not form myotubes
